This series can be described thus: Partition coefficient of compound (A) in solvents. In kind it is physicochemical. The following applies: HPLC, approximately 25° C. The protocol:
Experimental procedure for the respective solvent: (1) A solution of 10 g of compound (A) is prepared in 90 g of the respective solvent. (2) An aliquot of 10 g of the solution obtained in step (1) is added to 90 g of water in a glass bottle, which is shaken on a mechanical shaker for 4 hours at ambient temperature (approximately 25° C.). (3) The contents of the glass bottle are permitted to phase separate for 4 days at ambient temperature (approximately 25° C.). (4) Subsamples of the resulting oil and water phases are taken and analyzed by HPLC to determine the concentrations of compound (A) in oil (Co) and water phases (Cw) respectively. The subsamples are typically centrifuged before HPLC analysis to remove traces of organic solvent from the water phase.
A Partition Coefficient, analogous to the Octanol-Water Partition Coefficient, P, is calculated as Co/Cw. The Partition Coefficient is conveniently expressed as a logarithm […].
The ratio of determined concentrations of compound (A) in the solvent phase and the water phase typically is very large. […] In other cases, traces of the organic solvent are found in the water phase, even after centrifugation, so that the apparent concentration of oil-soluble herbicide observed in the water phase is misleadingly high. […]

As to `CCOC(=O)COc1ncccc1Oc1cc(-n2c(=O)cc(C(F)(F)F)n(C)c2=O)c(F)cc1Cl` [Cmp. A, ethyl [3-[2-chloro-4-fluoro-5-(1-methyl-6-trifluoromethyl-2,4-dioxo-1,2,3,4-tetrahydropyrimidin-3-yl)phenoxy]-2-pyridyloxy]acetate], the “compound (A) in the water phase” value was “undetectable” (acetophenone as organic solvent) and “undetectable” (aromatic 200 ND as organic solvent).

Source of the values: US20230053941A1, “MICROEMULSIONS WITH DICAMBA SALTS HAVING IMPROVED PROPERTIES” (MONSANTO TECHNOLOGY LLC, priority 2020, published 2023).
